Test results as given in ChEMBL document CHEMBL1139064, “Carbonic anhydrase activators: an activation study of the human mitochondrial isoforms VA and VB with amino acids and amines” (Bioorg Med Chem Lett, 2007).

Key:
[1] = target: Carbonic anhydrase 5B, mitochondrial (Homo sapiens) (UniProt Q9Y2D0); assay: Activation of human recombinant carbonic anhydrase 5B by stopped-flow CO2 hydrase method
[2] = target: Carbonic anhydrase 5A, mitochondrial (Homo sapiens) (UniProt P35218); assay: Activation of human recombinant carbonic anhydrase 5A by stopped-flow CO2 hydrase method
Carbonic anhydrase 5A, mitochondrial (Homo sapiens), sequence (P35218 whole entry): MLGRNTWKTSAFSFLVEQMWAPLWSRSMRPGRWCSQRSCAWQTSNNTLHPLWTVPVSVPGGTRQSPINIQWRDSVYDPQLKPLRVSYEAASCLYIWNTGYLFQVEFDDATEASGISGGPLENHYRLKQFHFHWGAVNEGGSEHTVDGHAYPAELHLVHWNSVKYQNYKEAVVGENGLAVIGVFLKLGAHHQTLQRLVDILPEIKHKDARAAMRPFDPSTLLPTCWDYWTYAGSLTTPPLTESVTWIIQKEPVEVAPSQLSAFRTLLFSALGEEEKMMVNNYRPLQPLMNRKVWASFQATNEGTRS

Carbonic anhydrase 5B, mitochondrial (Homo sapiens), sequence (Q9Y2D0 whole entry): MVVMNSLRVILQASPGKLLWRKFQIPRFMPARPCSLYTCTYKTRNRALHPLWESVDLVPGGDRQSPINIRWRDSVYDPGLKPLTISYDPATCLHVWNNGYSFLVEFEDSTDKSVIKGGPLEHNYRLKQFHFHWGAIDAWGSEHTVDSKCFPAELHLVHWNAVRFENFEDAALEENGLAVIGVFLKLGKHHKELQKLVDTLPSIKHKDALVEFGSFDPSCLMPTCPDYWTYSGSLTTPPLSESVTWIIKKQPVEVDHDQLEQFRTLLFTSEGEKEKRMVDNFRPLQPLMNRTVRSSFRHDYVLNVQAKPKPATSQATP

`N[C@H](Cc1c[nH]c2ccccc12)C(=O)O` was tested. Which KA [1] did it give?
The KA was 1.35 µM.

What about the KA [2] of the same compound?
The KA was 1.24 µM.

`NCCN1CCNCC1` was tested. Which KA [1] did it give?
The KA was 0.91 µM.

What about the KA [2] of the same compound?
Its KA is 6.04 µM.

Which results are given for `NCCc1c[nH]cn1`?
KA [1]: 3.52 µM; KA [2]: 0.01 µM

Which results are given for `N[C@H](Cc1ccc(O)c(O)c1)C(=O)O`?
KA [1]: 3.71 µM; KA [2]: 4.59 µM

Which results are given for `N[C@@H](Cc1ccc(O)c(O)c1)C(=O)O`?
KA [1]: 0.063 µM; KA [2]: 0.036 µM

Which KA [1] does the source give for `N[C@@H](Cc1ccc(O)cc1)C(=O)O` here?
The KA was 0.044 µM.

What about the KA [2] of the same compound?
Its KA is 2.45 µM.

For `N[C@@H](Cc1c[nH]c2ccccc12)C(=O)O`, which KA [1] is on record?
The KA was 0.89 µM.

And the KA [2]?
Its KA is 1.13 µM.

With `NCCN1CCOCC1` as the compound, how does the KA [1] read?
The KA was 1.15 µM.

What about the KA [2] of the same compound?
The KA was 0.089 µM.

Which KA [1] does the source give for `NCCc1ccccn1` here?
Its KA is 0.094 µM.

What about the KA [2] of the same compound?
Its KA is 7.62 µM.

Which results are given for `NCCc1c[nH]c2ccc(O)cc12`?
KA [1]: 0.11 µM; KA [2]: 6.33 µM

`NCCc1ccc(O)c(O)c1` was tested. Which KA [1] did it give?
Its KA is 7.85 µM.

And the KA [2]?
Its KA is 0.13 µM.

What does the source list for `Nc1ccc(C[C@H](N)C(=O)O)cc1`?
KA [1]: 2.17 µM; KA [2]: 2.76 µM

For `NCc1ccccn1`, which KA [1] is on record?
Its KA is 0.24 µM.

And the KA [2]?
Its KA is 23.6 µM.

For `N[C@@H](Cc1c[nH]cn1)C(=O)O`, which KA [1] is on record?
The KA was 0.97 µM.

What about the KA [2] of the same compound?
The KA was 1.34 µM.

How did the KA [1] turn out when `N[C@H](Cc1c[nH]cn1)C(=O)O` was run?
The KA was 4.38 µM.

What about the KA [2] of the same compound?
The KA was 0.12 µM.
